Assay results published in patent US8673594B2, “Methods for stimulating nervous system regeneration and repair by regulating arginase I and polyamine synthesis” (Research Foundation of City University of New York, priority 2000, dated 2014).

System: Arg I RNA in cerebellar neurons
Test: Arginase I RNA level in cerebellar neurons by RT-PCR and quantitative PCR
Format: cell-based
Conditions: overnight dbcAMP 1 mM or BDNF 200 ng/ml; P<0.005
Protocol: FIG. 4: Priming Neurons With Brain Derived Neurotrophic Factor (BDNF) or Dibutyryl (db) cAMP Up-Regulates Arginase I RNA Levels In Cerebellar Neurons. RNA isolated from cerebellar neurons without treatment (lane 2), from cerebellar neurons exposed overnight to either BDNF (200 ng/ml) (lane 3) or dbcAMP (1 mM) (lane 4), was reverse, transcribed and subjected to (A) semi-quantitative PCR; or (B) quantitative PM; using primers specific for arginase I. As a positive control, RNA isolated from liver tissue was subjected to RT PCR and quantitative PCR procedures using the same primers ((A), lane 1; (B), “Liver”)
To determine whether elevated cAMP levels causes an up-regulation of arginase expression, cerebellar neurons were primed with neurotrophins (BDNF) or dbcAMP (Example 1), and RNA and protein was extracted from primed neurons (Example 2). The extracted RNA was used as a template for reverse transcription and PCR amplification using primers specific for the gene encoding the enzyme arginase I (“Arg I”), an isoform of arginase abundant in liver tissue but barely detectable in other tissues.
Cerebellar neurons were primed with neurotrophins (BDNF, GDNF) or dbcAMP according to the procedures in Example 1. […]
Finally, ArgI amplified cDNA samples were detected by electrophoretic separation on a 1% agarose gel and staining with ethidium bromide.

Molecule | increase in amount of Arg I RNA by quantitative PCR
CCCC(=O)Nc1ncnc2c1ncn2[C@@H]1O[C@@H]2COP(=O)(O)O[C@H]2[C@H]1OC(=O)CCC [dbcAMP, dibutyryl cAMP] | about 50%
BDNF: Brain-derived neurotrophic factor, Trk-family neurotrophin (protein, UniProt P23560 19-247, looked up) Neurotrophic factor BDNF …: APMKEANIRGQGGLAYPGVRTHGTLESVNGPKAGSRGLTSLADTFEHVIEELLDEDQKVRPNEENNKDADLYTSRVMLSSQVPLEPPLLFLLEEYKNYLDAANMSMRVRRHSDPARRGELSVCDSISEWVTAADKKTAVDMSGGTVTVLEKVPVSKGQLKQYFYETKCNPMGYTKEGCRGIDKRHWNSQCRTTQSYVRALTMDSKKRIGWRFIRIDTSCVCTLTIKRGR | about 50%
